Results: patent US7763625B2, “Agents for treating migraine” (Kyowa Hakko Kirin Co., Ltd., priority 2004, dated 2010)

Test system: basilar (cerebral) arteries
Assay: Contractile effects on basilar arteries (suppression of adenosine-induced relaxation of isolated cerebral artery rings)
Design: species or system Dogs
Settings: isolated dog basilar artery rings relaxed with adenosine; test compound added cumulatively; in comparison with the Vehicle group
From the text: Dogs were anesthetized by intravenous injection of sodium pentobarbital, after which they were euthanized by exsanguination and subjected to craniotomy.
The basilar (cerebral) arteries were removed and cut into rings segments of about 2 mm in width. Each ring segment was fixed with a silk thread to a needle cut into about 2 mm in length. The needle was attached to a holder provided in an Easy-Magnus System (Model no. UC-2; IWASHIYA KISHIMOTO MEDICAL INSTRUMENTS); the ring segments were immersed in a nutritive solution and allowed to stabilize at a resting tension of 0.2 g (1.96 mN) for more than 60 minutes. Into the organ bath (2 mL) of the Easy-Magnus System, the cerebral artery was relaxed by application of 2 μL of 10 mmol/L adenosine aqueous solution. After that, the test compound was added cumulatively; 1 μL of 0.2 mmol/L dimethylsulfoxide solution, 1 μL of 0.4 mmol/L dimethylsulfoxide solution, and 0.7 μL of 2 mmol/L dimethylsulfoxide solution in order (Test compound-added group). Separately, in the same manner as in the Test compound-added group, dimethylsulfoxide alone was cumulatively added in place of the test compound (Vehicle group). The contraction of the cerebral artery was recorded on a recorder (Yokogawa) from an isometric force transducer (Nihon Kohden) connected to the holder, to which the ring was fixed, through a strain-pressure amplifier (Nihon Kohden). […]

## CCn1c(=O)c2c(nc(/C=C/c3ccc(OC)c(OC)c3)n2C)n(CC)c1=O [Compound 2]
  suppression of the adenosine-induced relaxation of the cerebral artery: dose-dependently and significantly suppressed
